Measured values: a compilation of properties of binary mixtures (doi:10.1021/acs.jced.2c00294)

Assay: xn = mol fraction of the nth substance listed
Conditions: 101 kPa

CCCC[N+]1(C)CCCC1.N#C[N-]S(=O)(=O)C(F)(F)F + [Li+].[N-](C#N)S(=O)(=O)C(F)(F)F
electrical conductivity (298 K, x2 = 0): 0.458 S/m | viscosity (298 K, x2 = 0): 45.9 mPa·s | electrical conductivity (303 K, x2 = 0): 0.546 S/m | viscosity (303 K, x2 = 0): 40.4 mPa·s | electrical conductivity (318 K, x2 = 0): 0.869 S/m | viscosity (318 K, x2 = 0): 24.6 mPa·s | electrical conductivity (323 K, x2 = 0): 1 S/m | viscosity (323 K, x2 = 0): 21.5 mPa·s | viscosity (328 K, x2 = 0): 16.19 mPa·s

CCCC[N+]1(C)CCCC1.N#C[N-]C#N + CCCC[N+]1(C)CCCC1.O=S(=O)([N-]S(=O)(=O)C(F)(F)F)C(F)(F)F
electrical conductivity (298 K, x2 = 0.5): 0.565 S/m | viscosity (298 K, x2 = 0.5): 51.3 mPa·s | electrical conductivity (303 K, x2 = 0.5): 0.642 S/m | viscosity (303 K, x2 = 0.5): 36.1 mPa·s | electrical conductivity (308 K, x2 = 0.5): 0.746 S/m | viscosity (308 K, x2 = 0.5): 32 mPa·s | electrical conductivity (313 K, x2 = 0.5): 0.857 S/m | viscosity (313 K, x2 = 0.5): 26.7 mPa·s | viscosity (328 K, x2 = 0.5): 17.06 mPa·s

N#C[N-]S(=O)(=O)C(F)(F)F.[Li+] + CCCC[N+]1(CCCC1)C.[N-](C#N)S(=O)(=O)C(F)(F)F
electrical conductivity (298 K, x1 = 0.05): 0.314 S/m | viscosity (298 K, x1 = 0.05): 73 mPa·s | electrical conductivity (298 K, x1 = 0.1): 0.227 S/m | viscosity (298 K, x1 = 0.1): 107.9 mPa·s | electrical conductivity (298 K, x1 = 0.2): 0.08 S/m | viscosity (298 K, x1 = 0.2): 379 mPa·s | electrical conductivity (303 K, x1 = 0.05): 0.372 S/m | viscosity (303 K, x1 = 0.05): 62.2 mPa·s | electrical conductivity (303 K, x1 = 0.2): 0.101 S/m | viscosity (303 K, x1 = 0.2): 312 mPa·s | electrical conductivity (308 K, x1 = 0.05): 0.442 S/m | viscosity (308 K, x1 = 0.05): 50.5 mPa·s | electrical conductivity (308 K, x1 = 0.1): 0.334 S/m | viscosity (308 K, x1 = 0.1): 73 mPa·s | electrical conductivity (308 K, x1 = 0.2): 0.127 S/m | viscosity (308 K, x1 = 0.2): 243 mPa·s | electrical conductivity (313 K, x1 = 0.05): 0.523 S/m | viscosity (313 K, x1 = 0.05): 42.4 mPa·s | electrical conductivity (313 K, x1 = 0.1): 0.401 S/m | viscosity (313 K, x1 = 0.1): 60.7 mPa·s | electrical conductivity (313 K, x1 = 0.2): 0.156 S/m | viscosity (313 K, x1 = 0.2): 191 mPa·s | electrical conductivity (318 K, x1 = 0.05): 0.611 S/m | viscosity (318 K, x1 = 0.05): 35.8 mPa·s | electrical conductivity (318 K, x1 = 0.1): 0.513 S/m | viscosity (318 K, x1 = 0.1): 50.6 mPa·s | electrical conductivity (323 K, x1 = 0.2): 0.234 S/m | viscosity (323 K, x1 = 0.2): 121.8 mPa·s | viscosity (328 K, x1 = 0.05): 23.6 mPa·s | viscosity (328 K, x1 = 0.2): 99.9 mPa·s
